This note sets out measurements from patent US20210059282A1, “Process for Spray Drying Fucosyllactose Solutions and Related Product Compositions” (DUPONT NUTRITION BIOSCIENCES APS, priority 2018, published 2021).

This series in a line: Solubility in water at room temperature and pressure (general statement). In kind it is physicochemical.

Turning to `CC1OC(OC2C(OC3C(CO)OC(O)C(O)C3O)OC(CO)C(O)C2O)C(O)C(O)C1O` (stereo not shown) [2′-FL, 2′-fucosyllactose], the Solubility in water result was “soluble in water”.
